# Measurements reported in patent US20010025105A1, “Certain substituted 1-aryl-3-piperazine-1'-yl propanones” (Molecular Geriatarics Corporation, priority 1997, published 2001).
# Counter-ions that a name gives are not always drawn.
# System: not given
# Assay: not given
# Details: not given
row,melting point,Compound
1,189 to 201 °C,"O=C(CCN1CCN(C(c2ccccc2)c2ccc(Cl)cc2)CC1)c1cccs1 (centres unmarked) (as salt: hydrochloride) [Example 89, 1-(2″-Thienyl)-3-[4′-(1′″-p-chlorophenyl-1′″-phenylmethyl)-1′-piperazinyl]-1-propanone dihydrochloride]"
2,221 °C (dec.),"Cn1cc(C(=O)CCN2CCN(Cc3ccccc3)CC2)cn1 (as salt: hydrochloride) [Example 24, 1-(1″-Methyl-1″-H-pyrazol-4″-yl)-3-(4′-benzyl-1′-piperazinyl)-1-propanone dihydrochloride]"
3,255 °C,"O=C(CCN1CCN(Cc2ccccc2)CC1)c1cc(C(F)(F)F)cc(C(F)(F)F)c1 (as salt: hydrochloride) [Example 9, 1-[3″,5″-Bis-(trifluoromethyl)phenyl]-3-(4′-benzyl-1′-piperazinyl)-1-propanone dihydrochloride]"

row,Compound,melting point
1,"Cc1ccc(C(=O)CCN2CCN(Cc3ccccc3)CC2)o1 (as salt: hydrochloride) [Example 67, 1-(5″-Methyl-2″-furanyl)-3-(4′-benzyl-1′-piperazinyl)-1-propanone hydrochloride]",213 °C (dec.)

# System: microtubule cytoskeleton of human CG neuroblastoma cells
# Assay: Antimicrotubule activity, tubulin immunofluorescence microscopy
# Type: cell-based
# Details: 2 hr at 37° C., read-out: Concentration where microtubule destabilization occurs
# Method: The compounds of the invention according to formula I are effective in destabilizing microtubules, thus are useful in treating certain neoplastic diseases. Indirect immunofluorescence microscopy using the monoclonal antibodies to tubulin is used herein to determine the activity of the compounds of this invention in promoting depolymerization of the microtubule cytoskeleton in cultured cells. The following assay was employed.
# Cultured human CG neuroblastoma cells were seeded 1:3 from confluent cultures onto sterile 11×22 mm coverslips in 6 well tissue culture plates 16 hr prior to treatment. The following day, the tissue culture medium is removed and the cells are exposed to various concentrations of compounds of this invention in Krebs Ringer Hepes (KRH) buffer containing a final concentration of 0.5% DMSO as carrier. Incubations were performed at 37° C. in a humidified 5% CO2 atmosphere for 2 hr. After incubation, the cells were fixed in 3% TEM grade formaldehyde in PBS for 45 min at room temperature.
# To visualize the effects of the compounds of the invention on the microtubule cytoskeleton, the cells were processed for tubulin immunofluorescence. Briefly, the cells were permeabilized in 0.5% Triton-X 100 in PBS for 5 min. The cells were washed 2× with PBS and aldehydes reduced using 0.5 mg/ml NaBH4 in PBS for 5 min. Subsequently, the cells were blocked for 10 min in 1.5% BSA and 1.5% nonfat dry milk in PBS (blocking solution, BS) for 10 min. The cells were then incubated for 30 min at 37° C. with the monoclonal antibody Tu27B which recognizes b-tubulin (dilution 1:20 in BS). Subsequently, the cells were washed 2× in PBS and once in BS. The cells were then incubated for 30 min at 37° C. with sheep antimouse IgG conjugated to FITC. After incubation, the cells were washed 2× in PBS and once in BS and incubated for 30 min at 37° C. with rabbit antisheep IgG conjugated to FITC. The cells were rinsed in PBS, counterstained with Hoechst 33285 in PBS (1 μg/ml), and rinsed in PBS. The coverslips were mounted in 9:1 glycerol:PBS containing 1 mg/ml p-phenylenediamine and sealed with nail polish.
# The cells were viewed using a Jenalumar epifluorescence microscope equipped with the proper filters for Fluorescein Isothiocyanate (FITC) excitation and emission. Lack of effect of a compound is evidenced by the presence of an intact microtubule network in interphase cells, or a mitotic spindle in dividing cells. Antineoplastic compounds of the invention at effective doses result in the disappearance of microtubules in both interphase and mitotic cells.
row,Compound,minimal effective concentration [µM]
1,"Cl.Cl.O=C(CCN1CCN(Cc2ccccc2)CC1)c1cc([N+](=O)[O-])c(Cl)s1 [Example 95, 1-(5″-Chloro-4″-nitro-2″-thienyl)-3-(4′-benzyl-1′-piperazinyl)-1-propanone dihydrochloride]",20
2,Cl.Cl.O=C(CCN1CCN(Cc2ccccc2)CC1)c1ccc(C2CCCCC2)cc1 [Example 27],20
3,"Cl.O=C(CCN1CCN(C(=O)c2c(F)cccc2F)CC1)c1ccccc1F [Example 41, 1-(o-Fluorophenyl)-3-[4′-(2″,6″-difluorobenzoyl)1′-piperazinyl]-1-propanone hydrochloride]",20
4,"Cl.Cl.O=C(CCN1CCN(Cc2ccccc2)CC1)c1cccs1 [Example 7, 1-(2″-Thienyl)-3-(4′-benzyl-1′-piperazinyl)-1-propanone dihydrochloride]",20
5,"Cl.Cl.O=C(CCN1CCN(Cc2cc(F)ccc2F)CC1)c1ccsc1 [Example 38, 1-(3″-Thienyl)-3-[4′-(2′″,5′″-difMuorobenzyl)-1′-piperazinyl]-1-propanone dihydrochloride]",20
6,"Cl.Cl.N#Cc1cccc(C(=O)CCN2CCN(Cc3ccccc3)CC2)c1 [Example 60, 1-(m-Cyanophenyl)-3-(4′-benzyl-1′-piperazinyl)-1-propanone dihydrochloride]",20
7,"Cl.Cl.N#Cc1ccc(C(=O)CCN2CCN(Cc3ccccc3)CC2)s1 [Example 85, 1-(5″-Cyano-2″-thienyl)-3-(4′-benzyl-1′-piperazinyl)-1-propanone dihydrochloride]",20
8,"Cl.Cl.O=C(CCN1CCN(Cc2ccccc2)CC1)c1conc1-c1ccccc1 [Example 112, 1-(3″-Phenylisoxazol-4″-yl)-3-(4′-benzyl-1′-piperazinyl)-1-propanone dihydrochloride]",20
9,Cl.Cl.O=C(CCN1CCN(Cc2ccccc2)CC1)c1ccc(Nc2ccc([N+](=O)[O-])cc2[N+](=O)[O-])cc1 [Example 113],20

# Same assay, conditions: Neuroblastoma cell, 2 hr at 37° C., read-out: Concentration where microtubule destabilization occurs
row,Compound,minimal effective concentration [µM]
1,O=C(CCN1CCN(Cc2ccccc2)CC1)c1ccc(C(=O)CCN2CCN(Cc3ccccc3)CC2)cc1 [Example 50],20
2,"O=C(CCN1CCN(Cc2ccccc2)CC1)c1cc2ccccc2o1 [Example 10, 1-(Benzofur-2″-yl)-3-(4′-benzyl-1′-piperazinyl)-1-propanone dihydrochloride]",20
3,"O=C(CCN1CCN(Cc2ccccc2)CC1)c1ccc2c(c1)CCCC2 [Example 20, 1-(1″,2″,3″,4″-Tetrahydronaphth-6″-yl)-3-(4′-benzyl-1′-piperazinyl)-1-propanone dihydrochloride]",20
4,"O=C(CCN1CCN(C(=O)c2c(F)cccc2F)CC1)c1ccc([N+](=O)[O-])cc1 [Example 40, 1-(p-Nitrophenyl)-3-[4′-(2″,6″-difluorobenzoyl)-1′-piperazinyl]-1-propanone hydrochloride]",20
5,"CC[C@]1(O)C[C@@H]2CN(CCc3c([nH]c4ccccc34)[C@@](C(=O)OC)(c3cc4c(cc3OC)N(C)[C@H]3[C@@](O)(C(=O)OC)[C@H](OC(C)=O)[C@]5(CC)C=CCN6CC[C@]43[C@@H]65)C2)C1 [vinblastine, reference compound]",0.05
6,"O=C(CCN1CCN(Cc2ccccc2)CC1)c1ccc(-c2ccccc2)cc1 [Example 22, 1-p-Biphenyl-3-(4′-benzyl-1′-piperazinyl)-1-propanone dihydrochloride]",20
7,"O=C(CCN1CCN(Cc2ccccc2)CC1)c1cc(C(F)(F)F)cc(C(F)(F)F)c1 [Example 9, 1-[3″,5″-Bis-(trifluoromethyl)phenyl]-3-(4′-benzyl-1′-piperazinyl)-1-propanone dihydrochloride]",20
8,"O=C(CCN1CCN(C(=O)c2ccccc2F)CC1)c1cccs1 [Example 70, 1-(2″-Thienyl)-3-[4′-(o-fluorobenzoyl)-1′-piperazinyl]-1-propanone hydrochloride]",20

# System: TG3 immunoreactivity in OKA treated MSN1a cells
# Assay: MSN1a cell culture model, ELISA with TG3 antibody, okadaic acid treated cells
# Type: cell-based, human
# Details: 1 μM OKA, 2 hrs at 37° C., read-out: IC50 for inhibition of TG3 immunoreactivity in OKA treated MSN1a cells
# Method: This assay can thus be used to determine whether a drug is capable of preventing or intervening in AD by attenuating the production of abnormally phosphorylated paired helical filament epitopes associated with AD. To determine whether a drug is capable of preventing or intervening in AD activity, the MSN1a cells containing tau and associated proteins are treated with OKA capable of greatly increasing immunoreactivity of the MSN1a cells with AD specific monoclonal antibodies. Then, either prior to or concomitantly with OKA treatment, a compound of the present invention is added to the culture. If the compound prevents the induction of the AD epitopes in the MSN1a cells treated with OKA, then it is said to have anti-AD activity. If the AD-specific antibodies are highly reactive with the neuroblastoma cells following OKA treatment in the presence of compound, then the compound is said to be ineffectual against AD.
# The MSN1a human neuroblastoma line was subcloned from a population of MSN cells obtained from the laboratory of Dr. Peter Davies (Albert Einstein College of Medicine, New York, N.Y.). Cells were grown and maintained in flasks in RPMI 1640 medium, supplemented with 15% fetal calf serum, 100 U/ml penicillin, 100 U/ml Streptomycin, 0.5 ug/ml fungizone under 7.5% CO2 at 37° C.
# Stock solutions of drugs were prepared by dissolving the anhydrous powders to final concentrations of either 10 or 20 mM in 50% aqueous or 100% dimethyl sulfoxide (DMSO), respectively. Working solutions of drugs were prepared by dilution of the stock solutions with Kreb's Ringer in Hepes buffer (KRH) (128 mM NaCl, 5 mM KCl, 2.5 mM CaCl2 1.2 mM MgSO4, 1 mM Na2HPO4, 10 mM dextrose, 20 mM Hepes, pH 7.4). OKA is maintained as a 1 mM stock solution in DMSO prior to dilution to 4 μM in KRH.
# MSN cells grown in 225 cm^2 flasks are removed from the incubator, their medium decanted and replaced with 50 ml pre-warmed KRH. The cells are harvested by scraping prior to sedimentation at 1000 rpm for 5 min. The supernatants are discarded and the cell pellets are resuspended, the cells counted and diluted to a density of 2×10^4 cells/[…]. The cells are then plated in a 96 well plate at 50 μl/well and 25 μl of 4 μM OKA and 25 μl of drug are then added to the appropriate wells; the entire 96 well plate is then incubated for 2 hrs at 37° C. Depending on the dilution of drug added, this yields individual wells containing 1 μM OKA, 0-64 μM drug and 2×10^4 cells in 0.26% DMSO in KRH. The incubation is terminated by the addition of 20 μl of 6X extraction buffer and immediate freezing at −80° C. for at least one hr. The 6X extraction buffer contains: 25 mM Tris-HCl, pH 7.6, 150 mM NaCl, 5 mM EDTA, 24 mM β-glycerol phosphate, 10 μg/ml APMSF (4-amidinophenylmethane-sulfonyl flouride), and 2.5 μg/ml each of leupeptin, aprotinin, and pepstatin. The plates are thawed in a 37° C. water bath and 20 μl of cell lysate is added to a replica well in an ELISA plate that already contains 80 μl of coating buffer (15 mM Na2CO3 and 35 mM NaHCO3, pH 9.6). The plates are allowed to coat overnight at 4° C. The plates are washed four times with deionized water and then blocked for 30 min at 37° C. with 200 μl/well pre-warmed 1% bovine serum albumin in 10 mM Tris-HCl, pH 7.4, 150 mM NaCl, 3 mM NaN3 (BSA-TBS). After the blocking solution is removed, 100 μl/well of an appropriate dilution of pre-warmed primary antibody (eg., TG3 or PHF-1) in BSA-TBS is added and incubated at 37° C. for 30 min. Incubation is terninated by washing four times in deionized water at which time 100 μl of an appropriate dilution of pre-warmed secondary antibody (conjugated to alkaline phosphatase) in BSA-TBS is added to each well in the ELISA plate. Incubation is performed for 30 min at 37° C. followed by washing 4 times with deionized water. […] of prewarmed chromogenic substrate (1 mg/mnl p-nitrophenyl phosphate in 10% diethanolamine, 3 mM NaN3, 0.5 mM MgCl2, pH 9.8) is added and the plate incubated for 30 min at 37° C. […]
row,Compound,IC50 [µM]
1,"Cl.Cl.O=C(CCN1CCN(Cc2ccccc2)CC1)c1cc([N+](=O)[O-])c(Cl)s1 [Example 95, 1-(5″-Chloro-4″-nitro-2″-thienyl)-3-(4′-benzyl-1′-piperazinyl)-1-propanone dihydrochloride]",2.8

# Same assay, conditions: Homo sapiens, 1 μM OKA, 2 hrs at 37° C., read-out: IC50 for inhibition of TG3 immunoreactivity in OKA treated MSN1a cells
row,Compound,IC50 [µM]
1,"O=C(CCN1CCN(Cc2ccccc2)CC1)c1cc2ccccc2o1 [Example 10, 1-(Benzofur-2″-yl)-3-(4′-benzyl-1′-piperazinyl)-1-propanone dihydrochloride]",6
